Data reported in patent US9394309B2, “Substituted phenylimidazopyrazoles and their use” (BAYER INTELLECTUAL PROPERTY GmbH, priority 2012, dated 2016).
pIC50: −log10 of the molar value.

Legend:
endogenous Tie2 receptor = endogenous Tie2 receptor (Homo sapiens (Human), UniProt Q02763); assay: Tie2-pTyr-ELISA (Tie2 autophosphorylation in HUVEC); assay type: cell-based; settings: autophosphorylation elevated by 4 mM sodium orthovanadate, from 2-7 independent measurements
Procedure: The cellular activity of the compounds according to the invention as Tie2 kinase inhibitors was determined in human endothelial cells (HUVEC) by measuring the inhibition of the autophosphorylation, elevated by treatment with sodium orthovanadate, of the endogenous Tie2 receptor by means of a Tie2/phosphotyrosine sandwich ELISA.
Human endothelial cells (human umbilical vein endothelial cells, HUVEC) were obtained from Cellsystems (FC-0003), cultured in Vasculife VEGF complete medium (Cellsystems, LL-1020) with 2% foetal calf serum (FCS) at 37° C./5% CO2 and used for Tie2-ELISA measurements up to passage 8.
HUVEC were plated in a culture volume of 100 μl of Vasculife VEGF complete medium at a cell density of 30 000 cells per well in transparent collagen-coated 96-well cell culture plates (Falcon, #353075) and incubated in an incubation cabinet at 37° C./5% CO2 overnight. The test substances dissolved in DMSO were used to prepare in each case one dilution series in Vasculife VEGF low-serum medium [basal medium with LifeFactors (Cellsystems, LM-0002), without FCS, with 0.1% BSA] without sodium orthovanadate and one dilution series in Vasculife VEGF low-serum-medium with 8 mM sodium orthovanadate in the desired concentrations in the range from […] to […], the final DMSO concentration being 1%. […]

[1] = target: intracellular domain of human Tie2 (GST fusion protein) (Homo sapiens (Human), UniProt Q02763); assay: Tie2 kinase assay (Tie2-TR-FRET); assay type: biochemical; settings: ATP concentration 1 mM; in some cases means of several independent determinations
Chain of intracellular domain of human Tie2 (GST fusion protein) (Q02763 776-1124): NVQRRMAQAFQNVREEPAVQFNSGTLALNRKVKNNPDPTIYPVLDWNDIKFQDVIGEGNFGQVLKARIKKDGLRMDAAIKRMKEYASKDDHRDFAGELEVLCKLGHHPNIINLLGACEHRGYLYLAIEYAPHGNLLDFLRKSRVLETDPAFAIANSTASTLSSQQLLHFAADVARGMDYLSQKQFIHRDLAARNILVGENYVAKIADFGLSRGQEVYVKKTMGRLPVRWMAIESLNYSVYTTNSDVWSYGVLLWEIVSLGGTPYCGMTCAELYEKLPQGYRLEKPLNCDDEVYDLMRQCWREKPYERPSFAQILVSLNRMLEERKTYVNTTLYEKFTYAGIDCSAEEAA
Procedure: The Tie2-inhibitory activity of the substances according to the invention was determined with the aid of one of the Tie2-TR-FRET assays described in the sections below at an ATP concentration of 1 mM (TR-FRET=Time-Resolved Fluorescence Resonance Energy Transfer):
The enzyme used was a recombinant fusion protein of glutathione S-transferase (GST) and the intracellular domain of human Tie2 (amino acids 776-1124) which was expressed in Baculovirus-infected insect cells (Hi5) and was purified by affinity chromatography on glutathione-Sepharose. Alternatively, it is also possible to use commercially available GST-His6-Tie2 fusion protein (ProQinase GmbH, Freiburg im Breisgau, Germany). The substrate used for the kinase reaction was the biotinylated peptide biotin-Ahx-[…] […]
The reaction was stopped by addition of 5 μl of a solution of TR-FRET detection reagents [200 nM streptavidin-XL665 and 2 nM PT66-Eu chelate, a europium chelate-labelled anti-phosphotyrosine antibody (Perkin-Elmer); alternatively, it is also possible to use PT66-Tb cryptate (Cisbio Bioassays, Codolet, France)] in aqueous EDTA solution [90 mM EDTA, 0.28% (w/v) bovine serum albumin (BSA) in 50 mM HEPES pH 7.5]. […] The amount of phosphorylated substrate was then determined by measuring the resonance energy transfer from PT66-Eu chelate to streptavidin-XL665. […]

Chain of endogenous Tie2 receptor (Q02763 23-1124): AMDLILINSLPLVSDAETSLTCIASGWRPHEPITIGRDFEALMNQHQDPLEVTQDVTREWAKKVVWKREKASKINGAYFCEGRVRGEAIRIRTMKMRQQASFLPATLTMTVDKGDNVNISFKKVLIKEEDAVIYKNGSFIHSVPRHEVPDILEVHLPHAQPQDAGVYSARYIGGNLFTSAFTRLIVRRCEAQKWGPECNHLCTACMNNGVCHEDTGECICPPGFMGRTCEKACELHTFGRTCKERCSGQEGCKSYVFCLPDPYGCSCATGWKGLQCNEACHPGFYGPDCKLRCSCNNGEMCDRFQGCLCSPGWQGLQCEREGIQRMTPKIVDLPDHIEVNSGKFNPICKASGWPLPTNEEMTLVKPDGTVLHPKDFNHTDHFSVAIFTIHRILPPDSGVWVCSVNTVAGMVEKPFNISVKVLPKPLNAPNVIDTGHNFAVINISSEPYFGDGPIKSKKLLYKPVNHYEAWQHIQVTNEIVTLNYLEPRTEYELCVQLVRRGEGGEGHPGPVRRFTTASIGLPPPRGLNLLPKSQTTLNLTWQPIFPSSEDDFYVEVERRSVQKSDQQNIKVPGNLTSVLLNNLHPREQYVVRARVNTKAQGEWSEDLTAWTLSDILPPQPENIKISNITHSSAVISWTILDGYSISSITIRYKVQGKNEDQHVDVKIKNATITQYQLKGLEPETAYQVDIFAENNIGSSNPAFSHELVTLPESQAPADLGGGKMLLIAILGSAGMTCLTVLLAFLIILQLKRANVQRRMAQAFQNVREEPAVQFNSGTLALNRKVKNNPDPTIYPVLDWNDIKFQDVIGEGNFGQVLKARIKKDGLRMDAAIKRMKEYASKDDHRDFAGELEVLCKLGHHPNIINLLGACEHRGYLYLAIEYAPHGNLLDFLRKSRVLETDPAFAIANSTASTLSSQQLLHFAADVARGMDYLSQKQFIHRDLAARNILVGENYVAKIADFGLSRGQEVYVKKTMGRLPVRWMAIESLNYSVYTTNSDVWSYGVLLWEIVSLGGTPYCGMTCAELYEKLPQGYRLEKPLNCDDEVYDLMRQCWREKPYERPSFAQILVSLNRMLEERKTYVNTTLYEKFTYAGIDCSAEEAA

## Cc1ccc(NC(=O)c2cc(C#N)cc(S(F)(F)(F)(F)F)c2)cc1-n1ccn2nc(-c3cn[nH]c3)cc12 [Example 85, 3-Cyano-N-{4-methyl-3-[6-(1H-pyrazol-4-yl)-1H-imidazo[1,2-b]pyrazol-1-yl]phenyl}-5-(pentafluoro-λ^6-sulphanyl)benzamide]
Endogenous Tie2 receptor
  pIC50: 7.36
[1]
  pIC50: 7.70
